Laboratory results as given in patent US20040037806A1, “Aldosterone blocker therapy to prevent or treat inflammation-related disorders” (Pharmacia Corporation, priority 2002, published 2004).
Entries after “also recorded” stand apart in the source; their conditions may differ.

Legend:
Type in all cases: in vivo, rat
COX-2 = test: Assay C: COX-2 mRNA, TaqMan; settings: 7, 14, 30 days; aldosterone+salt alone or with eplerenone 100 mg/kg/day
Method: (§1) The procedure of Assay B was expanded upon in a further study. […] Myocardial tissue from animals in each treatment group was examined after 7, 14, or 30 days of treatment.
(§2) Potassium chloride supplementation was added to the saline solution in order to prevent the potential hypokalemia associated with aldosterone excess.
(§3) Treatment At the time of the surgery, an Alzet 2002 osmotic minipump (Alza Corp., Palo Alto, Calif.) containing either vehicle (9% ethanol/87% propylene glycol/4% dH2O) or 1.0 mg/mL d-aldosterone (Sigma Chemical, St. Louis, Mo.) was inserted subcutaneously at the nape of the neck. Aldosterone was administered at a dose of 0.75 µg/hour. […]
(§4) The fluorogenic 5′-nuclease assay (TaqMan PCR) using Applied Biosystems' 7700 Sequence Detection System (Applied Biosystems, Foster City, Calif.) allowed for real time detection/quantitation of a specific gene by monitoring the increase in fluorescence of a gene-specific, dye-labeled oligonucleotide probe. […] When the probe was annealed to the target gene, fluorescence of 6FAM was prevented by the close proximity of TAMRA. The exonuclease activity of Taq polymerase released the dyes from the oligonucleotide probe by displacing the probe from the target sequence resulting in fluorescence excitation in direct proportion to the amount of target message present. […]

osteopontin = test: Assay C: Osteopontin mRNA, TaqMan; settings: 7, 14, 30 days; aldosterone+salt alone or with eplerenone 100 mg/kg/day
Method: as §1, §2, §3, §4

[1] = system: Atrial natriuretic factor (ANP); test: Assay C: ANP mRNA in left ventricle, TaqMan; settings: aldosterone+salt alone or with eplerenone 100 mg/kg/day; 7, 14, 30 days
Method: as §1, §2, §3, §4

[2] = Assay A: angiotensin II infusion model, systolic blood pressure by tail-cuff; settings: Wistar rats, 1% NaCl to drink, angiotensin II 25 ng/min sc, 4 weeks; eplerenone 100 mpk; aldosterone given to adrenalectomized, dexamethasone-treated rats
Collagen I = test: Assay C: Collagen I mRNA, TaqMan; settings: 30 days, compared to vehicle+salt controls
Method: as §1, §2, §3, §4

cyclooxygenase-2 (COX-2) = test: Assay A: cyclooxygenase-2 immunostaining of hearts; settings: angiotensin II-infused, saline-drinking Wistar rats, eplerenone 100 mpk, aldosterone replacement in adrenalectomized rats

Structure (SMILES)	COX-2 mRNA expression in myocardium (COX-2)	Osteopontin mRNA expression in myocardium (osteopontin)	Atrial natiuretic peptide (ANP) mRNA levels [1]	Systolic blood pressure [2]	Collagen type-I message (Collagen I)	Cyclooxygenase-2 expression in the heart (immunostaining) (cyclooxygenase-2 (COX-2))	Cyclooxygenase-2 expression in the heart (immunostaining) (cyclooxygenase-2 (COX-2); listed as Eplerenone)
C[C@]12CCC(=O)C=C1CC[C@@H]1[C@@H]2[C@@H](O)C[C@]2(C=O)[C@@H](C(=O)CO)CC[C@@H]12 [aldosterone]	significantly increased	markedly upregulated	Significant elevations	increased blood pressure	modest increase	restored the presence of cycloxygenase-2 in coronary arteries	–
COC(=O)[C@@H]1CC2=CC(=O)CC[C@]2(C)[C@@]23O[C@@H]2C[C@@]2(C)[C@@H](CC[C@@]24CCC(=O)O4)[C@H]13 [eplerenone]	inhibition of early time-course expression of myocardial COX-2; also recorded: significantly reduced	significantly reduced; also recorded: inhibition of early time-course expression of myocardial osteopontin	significantly reduced by eplerenone after 30 days of treatment but not after 14 days	Neither eplerenone nor adrenalectomy reduced blood pressure	modest increase	prevention by eplerenone of induction of COX-2 expression	markedly reduced and in most cases completely prevented the expression of cycloxygenase-2
